Assay results: ChEMBL document CHEMBL1133821, “Synthesis and antiinflammatory, analgesic activity of 3,3'-(1,2-ethanediyl)-bis[2-aryl-4-thiazolidinone] chiral compounds. Part 10” (Bioorg Med Chem Lett, 2001)

Assays:
[1] = test system: Rattus norvegicus; experiment: Animals with Hyperemia in Carrageenan-induced paw edema test at a dose of 100 mg/kg perorally in rats; assay type: functional; conditions: route oral
[2] = Peroral dose causing 50% death of the mice population; assay type: ADME, organism-based; conditions: mouse, in vivo, po
[3] = test system: Rattus norvegicus; experiment: Reaction time in Hot plate test at a dose of 100 mg/kg perorally in rats after 60 min (p<0.05); assay type: functional; conditions: route oral
[4] = test system: Rattus norvegicus; experiment: Analgesic activity was determined using acetic acid writing test at a dose of 100 mg/kg perorally in rats.(p<0.01); assay type: functional; conditions: route oral
[5] = test system: Rattus norvegicus; experiment: Percent Edema variation in Carrageenan-induced paw edema test at a dose of 100 mg/kg perorally in rats after 180 min; assay type: functional; conditions: route oral
[6] = test system: Rattus norvegicus; experiment: Animals with Ulcers in Carrageenan-induced paw edema test at a dose of 100 mg/kg perorally in rats; assay type: functional; conditions: route oral
[7] = Minimum concentration which causes 50% of the Artemia salina larvae to lose mobility; assay type: ADME, organism-based; conditions: in vivo
[8] = test system: Rattus norvegicus; experiment: Number of writhings in Acetic acid Writhing test at a dose of 100 mg/kg perorally in rats; assay type: functional; conditions: route oral
[9] = test system: Rattus norvegicus; experiment: Percent Edema variation in Carrageenan-induced paw edema test at a dose of 100 mg/kg perorally in rats after 120 min; assay type: functional; conditions: route oral
[10] = test system: Rattus norvegicus; experiment: Reaction time in Hot plate test at a dose of 100 mg/kg perorally in rats after 180 min; assay type: functional; conditions: route oral
[11] = test system: Rattus norvegicus; experiment: Percent Edema variation in Carrageenan-induced paw edema test at a dose of 100 mg/kg perorally in rats after 60 min; assay type: functional; conditions: route oral
[12] = test system: Rattus norvegicus; experiment: Reaction time in Hot plate test at a dose of 100 mg/kg perorally in rats after 120 min; assay type: functional; conditions: route oral
[13] = test system: Rattus norvegicus; experiment: Reaction time in Hot plate test at a dose of 100 mg/kg perorally in rats after 180 min (p<0.05); assay type: functional; conditions: route oral
[14] = test system: Rattus norvegicus; experiment: Reaction time in Hot plate test at a dose of 100 mg/kg perorally in rats after 120 min (p<0.05); assay type: functional; conditions: route oral
[15] = test system: Rattus norvegicus; experiment: Percent Edema variation in Carrageenan-induced paw edema test at a dose of 100 mg/kg perorally in rats after 60 min (p<0.01); assay type: functional; conditions: route oral
[16] = test system: Rattus norvegicus; experiment: Reaction time in Hot plate test at a dose of 100 mg/kg perorally in rats after 60 min; assay type: functional; conditions: route oral
[17] = test system: Rattus norvegicus; experiment: Percent Edema variation in Carrageenan-induced paw edema test at a dose of 100 mg/kg perorally in rats after 180 min (p<0.001); assay type: functional; conditions: route oral
[18] = test system: Rattus norvegicus; experiment: Analgesic activity was determined using acetic acid writing test at a dose of 100 mg/kg perorally in rats.(p<0.05); assay type: functional; conditions: route oral
[19] = test system: Rattus norvegicus; experiment: Percent Edema variation in Carrageenan-induced paw edema test at a dose of 100 mg/kg perorally in rats after 120 min (p<0.001); assay type: functional; conditions: route oral
[20] = test system: Rattus norvegicus; experiment: Percent Edema variation in Carrageenan-induced paw edema test at a dose of 25 mg/kg perorally in rats after 120 min (p<0.01); assay type: functional; conditions: route oral
[21] = test system: Rattus norvegicus; experiment: Analgesic activity was determined using acetic acid writing test at a dose of 100 mg/kg perorally in rats. (p<0.01); assay type: functional; conditions: route oral
[22] = test system: Rattus norvegicus; experiment: Percent Edema variation in Carrageenan-induced paw edema test at a dose of 50 mg/kg perorally in rats after 120 min (p<0.01); assay type: functional; conditions: route oral
[23] = test system: Rattus norvegicus; experiment: Percent Edema variation in Carrageenan-induced paw edema test at a dose of 50 mg/kg perorally in rats after 180 min (p<0.01); assay type: functional; conditions: route oral
[24] = test system: Rattus norvegicus; experiment: Percent Edema variation in Carrageenan-induced paw edema test at a dose of 50 mg/kg perorally in rats after 60 min (p<0.01); assay type: functional; conditions: route oral
[25] = Animals with Hyperemia in Carrageenan-induced paw edema test at a dose of 25 mg/kg perorally in rats; assay type: functional; conditions: route oral
[26] = test system: Rattus norvegicus; experiment: Reaction time in Hot plate test at a dose of 100 mg/kg perorally in rats after 180 min (p<0.001); assay type: functional; conditions: route oral
[27] = test system: Rattus norvegicus; experiment: Reaction time in Hot plate test at a dose of 100 mg/kg perorally in rats after 120 min (p<0.01); assay type: functional; conditions: route oral
[28] = test system: Rattus norvegicus; experiment: Percent Edema variation in Carrageenan-induced paw edema test at a dose of 25 mg/kg perorally in rats after 60 min (p<0.01); assay type: functional; conditions: route oral
[29] = test system: Rattus norvegicus; experiment: Percent Edema variation in Carrageenan-induced paw edema test at a dose of 25 mg/kg perorally in rats after 180 min (p<0.01); assay type: functional; conditions: route oral
[30] = test system: Rattus norvegicus; experiment: Percent Edema variation in Carrageenan-induced paw edema test at a dose of 100 mg/kg perorally in rats after 180 min (p<0.01); assay type: functional; conditions: route oral
[31] = Animals with Hyperemia in Carrageenan-induced paw edema test at a dose of 50 mg/kg perorally in rats; assay type: functional; conditions: route oral
[32] = Animals with Ulcers in Carrageenan-induced paw edema test at a dose of 50 mg/kg perorally in rats; assay type: functional; conditions: route oral
[33] = Animals with Ulcers in Carrageenan-induced paw edema test at a dose of 25 mg/kg perorally in rats; assay type: functional; conditions: route oral
[34] = test system: Rattus norvegicus; experiment: Reaction time in Hot plate test at a dose of 100 mg/kg perorally in rats after 60 min (p<0.01); assay type: functional; conditions: route oral
[35] = test system: Rattus norvegicus; experiment: Percent Edema variation in Carrageenan-induced paw edema test at a dose of 100 mg/kg perorally in rats after 60 min (p<0.001); assay type: functional; conditions: route oral
[36] = test system: Rattus norvegicus; experiment: Analgesic activity was determined using acetic acid writing test at a dose of 100 mg/kg perorally in rats.; assay type: functional; conditions: route oral

| Compound | Animals [1] | LD50 [2] | Reaction time [3] | Edema variation [5] | Animals [6] | LC50 [7] | No. of writhings [8] | Edema variation [9] | Edema variation [11] | other results |
| --- | --- | --- | --- | --- | --- | --- | --- | --- | --- | --- |
| COc1ccc([C@H]2SCC(=O)N2CCN2C(=O)CS[C@H]2c2ccc(OC)c(F)c2)cc1F | 20% | > 1000 mg/kg | 16.1 s | 30.11% | 40% | > 1000 µg/mL | 10.2 | 25.12% | 22.13% | inhibition in vivo at 100 mg/kg [4]: 50%; Reaction time [10]: 12.5 s; Reaction time [12]: 12.3 s |
| O=C1CS[C@H](c2ccc(Cl)c(Cl)c2)N1CCN1C(=O)CS[C@H]1c1ccc(Cl)c(Cl)c1 | 40% | > 1000 mg/kg | 18.7 s | -61.2% | 0% | > 1000 µg/mL | 4.6 | -61.1% | -61.12% | Reaction time [13]: 22.9 s; inhibition in vivo at 100 mg/kg [4]: 77%; Reaction time [14]: 22.5 s |
| O=C1CSC(c2cccc([N+](=O)[O-])c2)N1CCN1C(=O)CSC1c1cccc([N+](=O)[O-])c1 (centres undefined) | 40% | > 1000 mg/kg | – | 23.43% | 0% | > 1000 µg/mL | – | -0.31% | – | Edema variation [15]: -35.52% |
| COc1ccc(C2SCC(=O)N2CCN2C(=O)CSC2c2ccc(OC)cc2)cc1 (centres undefined) | 20% | > 1000 mg/kg | – | – | 0% | > 1000 µg/mL | 15.8 | -26.62% | 39.52% | Reaction time [16]: 11.2 s; Edema variation [17]: -64.98%; inhibition in vivo at 100 mg/kg [18]: 22%; Reaction time [10]: 13.9 s; Reaction time [12]: 15.1 s |
| COc1ccc([C@H]2SCC(=O)N2CCN2C(=O)CS[C@H]2c2ccc(OC)c(OC)c2)cc1OC | 20% | > 1000 mg/kg | – | – | 0% | > 1000 µg/mL | 10 | – | – | Edema variation [19]: -62.33%; Edema variation [20]: -53.28%; inhibition in vivo at 100 mg/kg [21]: 51%; Edema variation [22]: -59.49%; Edema variation [23]: -44.26%; Edema variation [24]: -53.62%; Animals [25]: 20%; Edema variation [15]: -58.28%; Reaction time [26]: 36.4 s; Reaction time [27]: 26.8 s; Edema variation [28]: -38.33%; Edema variation [29]: -40.09%; Edema variation [30]: -58.01%; Animals [31]: 20%; Animals [32]: 0%; Animals [33]: 0%; Reaction time [34]: 26.6 s |
| O=C1CS[C@H](c2cccc([N+](=O)[O-])c2)N1CCN1C(=O)CS[C@H]1c1cccc([N+](=O)[O-])c1 | 40% | > 1000 mg/kg | 17.1 s | – | 0% | > 1000 µg/mL | 17.8 | – | – | Reaction time [13]: 22 s; Edema variation [19]: -67.3%; Edema variation [17]: 21.11%; Edema variation [35]: -83.3%; Reaction time [14]: 19.4 s; inhibition in vivo at 100 mg/kg [36]: 13% |
| Cc1cccc(C2SCC(=O)N2CCN2C(=O)CSC2c2cccc(C)c2)c1 (centres undefined) | 20% | > 1000 mg/kg | – | -23.6% | 0% | > 1000 µg/mL | – | -0.13% | 43.41% | – |
